# Measured values reported in patent US20240285552A1 (priority 2020, published 2024).
# “And” between values parts separate entries of the source, which are not always exact repeats. Equal entries are not always repeated. “Also recorded” adds a separate entry of the source. Structures can show the parent of a compound that is named as a salt. Where two headings read alike, the source gives them in different places.
# Legend:
# [1] = system: SARS-CoV-2 spike pseudotyped lentivirus; test: microbe, parasite or virus in culture; assay type: cell-based
# SARS-CoV-2 USA_WA1/2020 [2] = test: microbe, parasite or virus in culture; assay type: cell-based
# [3] = biological target: T1, rhACE2 and SARS-CoV-2 Spike (RBD) protein interaction (Homo sapiens, UniProt Q9BYF1); test: Spike (RBD)-ACE2 binding assay (ELISA); design: species or system human; SARS-CoV-2; details: for IC50: bell-shaped model, AMB, BHH
# T1 construct: purchased RayBiotech CoV-SACE2-1
# T1 sequence (Q9BYF1 18-740): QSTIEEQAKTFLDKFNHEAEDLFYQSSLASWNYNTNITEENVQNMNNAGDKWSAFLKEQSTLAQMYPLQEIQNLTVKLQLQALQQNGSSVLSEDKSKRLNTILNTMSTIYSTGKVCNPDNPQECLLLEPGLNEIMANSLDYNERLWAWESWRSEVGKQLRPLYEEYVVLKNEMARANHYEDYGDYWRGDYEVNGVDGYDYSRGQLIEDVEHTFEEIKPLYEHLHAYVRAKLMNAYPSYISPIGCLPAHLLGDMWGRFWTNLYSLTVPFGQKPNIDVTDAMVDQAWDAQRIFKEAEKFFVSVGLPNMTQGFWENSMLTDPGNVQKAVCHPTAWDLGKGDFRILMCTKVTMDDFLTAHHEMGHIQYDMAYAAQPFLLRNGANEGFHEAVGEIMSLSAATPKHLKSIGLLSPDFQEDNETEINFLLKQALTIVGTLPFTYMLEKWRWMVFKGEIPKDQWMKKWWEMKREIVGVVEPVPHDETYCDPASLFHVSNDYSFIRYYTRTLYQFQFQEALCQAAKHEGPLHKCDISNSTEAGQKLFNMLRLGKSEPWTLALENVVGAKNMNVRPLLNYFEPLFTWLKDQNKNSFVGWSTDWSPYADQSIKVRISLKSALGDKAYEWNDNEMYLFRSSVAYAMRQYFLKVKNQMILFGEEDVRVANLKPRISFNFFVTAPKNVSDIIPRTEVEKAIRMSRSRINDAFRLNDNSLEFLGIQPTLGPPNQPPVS
# ACE1 [4] = biological target: T2, ACE1 (Homo sapiens, UniProt P12821); test: ACE1 activity assay (colorimetric); assay type: biochemical
# T2 construct: purchased Sigma-Aldrich MAK422
# T2 sequence (P12821 30-1306): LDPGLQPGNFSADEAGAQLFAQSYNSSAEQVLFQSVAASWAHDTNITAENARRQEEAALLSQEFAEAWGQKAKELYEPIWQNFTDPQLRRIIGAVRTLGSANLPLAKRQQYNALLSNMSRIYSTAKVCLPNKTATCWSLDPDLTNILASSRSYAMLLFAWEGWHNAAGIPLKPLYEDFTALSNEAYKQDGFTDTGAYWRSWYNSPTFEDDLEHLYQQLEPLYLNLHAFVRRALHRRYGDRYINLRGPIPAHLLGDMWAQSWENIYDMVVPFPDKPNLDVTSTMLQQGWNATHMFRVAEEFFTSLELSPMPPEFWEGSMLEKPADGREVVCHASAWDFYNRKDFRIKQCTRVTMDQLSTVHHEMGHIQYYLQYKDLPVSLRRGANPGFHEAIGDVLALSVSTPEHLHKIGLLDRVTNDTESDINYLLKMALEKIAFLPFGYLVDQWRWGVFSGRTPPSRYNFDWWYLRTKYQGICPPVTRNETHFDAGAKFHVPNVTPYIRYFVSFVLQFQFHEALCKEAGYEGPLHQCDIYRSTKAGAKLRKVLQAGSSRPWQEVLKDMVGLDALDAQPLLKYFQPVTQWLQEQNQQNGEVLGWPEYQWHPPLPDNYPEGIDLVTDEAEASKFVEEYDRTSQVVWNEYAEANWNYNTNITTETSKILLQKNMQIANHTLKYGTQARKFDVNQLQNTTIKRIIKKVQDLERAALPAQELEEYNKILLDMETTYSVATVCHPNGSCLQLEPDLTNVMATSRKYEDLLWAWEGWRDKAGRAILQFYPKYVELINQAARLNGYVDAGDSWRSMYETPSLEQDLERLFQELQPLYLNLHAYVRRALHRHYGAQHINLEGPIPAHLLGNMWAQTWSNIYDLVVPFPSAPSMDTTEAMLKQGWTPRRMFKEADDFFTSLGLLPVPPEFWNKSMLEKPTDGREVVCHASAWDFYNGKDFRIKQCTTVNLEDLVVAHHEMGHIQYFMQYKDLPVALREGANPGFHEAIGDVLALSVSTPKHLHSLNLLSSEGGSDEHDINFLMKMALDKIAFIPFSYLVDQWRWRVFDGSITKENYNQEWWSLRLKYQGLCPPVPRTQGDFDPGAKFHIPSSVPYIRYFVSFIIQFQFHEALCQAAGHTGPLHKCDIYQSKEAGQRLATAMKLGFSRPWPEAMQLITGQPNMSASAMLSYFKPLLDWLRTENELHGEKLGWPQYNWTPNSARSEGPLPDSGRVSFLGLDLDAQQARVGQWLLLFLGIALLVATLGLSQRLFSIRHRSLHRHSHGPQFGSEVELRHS
# Method: ACE1 Activity Assay. ACE1 Inhibitor Screening Kit (Cat #MAK422) was purchased from Sigma-Aldrich (St. Louis, MO) and adapted to determine the effect of BHH and AMB on the enzymatic activity of ACE (Aldrich, 2022). The in vitro colorimetric assay was performed in a transparent flat-bottom 96-well plate. 50 mm and 10 mm solutions of Captropil, a known ACE1 inhibitor were used as a positive inhibitor control. Stock solutions of the compounds were prepared in 100% Dimethyl sulfoxide (DMSO) and further serially diluted in DMSO as follows: 500, 100, 50,10,5,1 and 0.5 μm for AMB and the positive control Captropil. All experiments were performed in quadruplicates. Each plate contained positive controls (1% DMSO) and blank controls with no ACE1 enzyme. Specifically, 2.5 μl of serially diluted compounds were pre-incubated with 2 μl of ACE1 protein diluted in 38 μl of 1× assay diluent buffer for about 15 mins, at room temperature (22° C.). 157.5 μl of 1×ACE1 assay buffer (197.5 μl for −ve control) was added into the 96 well plates. The solution was mixed well and incubated at 37° C. for 15-20 minutes, protected from light. After that, 40 μl of the substrate was added to each well and mixed well. The absorbance was measured immediately at 345 nm (A345) in kinetic mode for 60 minutes.
# ACE1 [5] = test: Western blotting, ACE1 expression in A549 cells; assay type: cell-based, human; details: 50 μm, 24 hrs and 48 hrs
# Method: (§1) Western blotting. A549 “Lung” cells (RRID:CVCL_COQ5) were harvested in a radioimmuno precipitation assay (RIPA) buffer (Tris 10 mM pH 7.4, containing 140 mM NaCl, 1 mM EDTA, 1 mM NaF, 0.10% SDS, 0.50% sodium deoxycholate 0.1% NP-40, 1% Triton X-100) in the presence of protease inhibitors (Thermo Fisher) at 24 hrs. and 48 hrs. Protein concentration was determined by was determined using bicinchoninic acid with bovine serum albumin as a standard (Thermo Fisher). Equal amounts of protein were loaded and separated by SDS-PAGE using 10% pre-casted gels (Biorad). Proteins were electroblotted onto nitrocellulose membranes (Bio-Rad). The blots were blocked using 5% (w/v) milk in Tris-buffered saline containing 0.5% (v/v) Tween-20. The membranes were then incubated with different antibodies. Antibodies directed against ACE1 (ab28311) and ACE2 (ab108209) were used and the GAPDH antibody was used as loading control for cell lysates. Primary and secondary antibodies were diluted in Tris-buffered saline containing (0.5% v/v) Tween-20 (TBS-T) supplemented with 5% milk. The bands were visualized by incubating the blots with enhanced chemiluminescence reagent (ECL, Biorad) and visualized using chemidoc. Band intensities were quantified by using imagelab software Biorad.
# ACE2 = test: Western blotting, ACE2 expression in A549 cells; assay type: cell-based, human; details: 50 μm, 24 hrs and 48 hrs
# Method: as §1
# Vero E6 cells = details: Vero E6
# SARS-CoV-2 USA_WA1/2020 [6] = details: hamster
# in vitro = details: African green monkey
structure (smiles),measurement,setting,value
"Nc1c(Br)cc(Br)cc1CN[C@H]1CC[C@H](O)CC1 [AMB, 4-[(2-amino-3,5-dibromophenyl)methylamino]cyclohexan-1-ol; hydrochloride]",Percent Inhibition of fusion of SARS-CoV-2 spike pseudotyped lentivirus with HEK293-ACE2 cells,"[1]; 10 μM, Table 3, hydrochloride",86% and 55%
same,Percent Inhibition of fusion of SARS-CoV-2 spike pseudotyped lentivirus with HEK293-ACE2 cells,"[1]; 25 μM, Table 3, hydrochloride",64%
same,"Percent (%) Inhibition of Pseudo virus Entry in HEK293 Kidney Cells, SARS-COV-2","[1]; 50 μM, Table 2, hydrochloride",46%
same,Percent Inhibition of fusion of SARS-CoV-2 spike pseudotyped lentivirus with HEK293-ACE2 cells,"[1]; 50 μM, Table 3, hydrochloride",59%
same,Percent Inhibition of fusion of SARS-CoV-2 spike pseudotyped lentivirus with HEK293-ACE2 cells,"[1]; 100 μM, Table 3, hydrochloride",47%
same,inhibition at 25 µM,"[1]; Severe acute respiratory syndrome coronavirus 2, 25 μM, Table 3, read-out: Percent Inhibition of fusion of SARS-CoV-2 spike pseudotyped lentivirus with HEK293-ACE2 cells",78%
same,inhibition at 50 µM,"[1]; Severe acute respiratory syndrome coronavirus 2, 50 μM, Table 3, read-out: Percent Inhibition of fusion of SARS-CoV-2 spike pseudotyped lentivirus with HEK293-ACE2 cells",72%
same,inhibition at 100 µM,"[1]; Severe acute respiratory syndrome coronavirus 2, 100 μM, Table 3, read-out: Percent Inhibition of fusion of SARS-CoV-2 spike pseudotyped lentivirus with HEK293-ACE2 cells",41%
same,inhibition at 10 µM,"[1]; Severe acute respiratory syndrome coronavirus 2, HEK293, 10 μM, Table 2, read-out: Percent (%) Inhibition of Pseudo virus Entry in HEK293 Kidney Cells, SARS-COV-2",2%
same,inhibition at 25 µM,"[1]; Severe acute respiratory syndrome coronavirus 2, HEK293, 25 μM, Table 2, read-out: Percent (%) Inhibition of Pseudo virus Entry in HEK293 Kidney Cells, SARS-COV-2",12%
same,inhibition at 50 µM,"[1]; Severe acute respiratory syndrome coronavirus 2, HEK293, 50 μM, Table 2, read-out: Percent (%) Inhibition of Pseudo virus Entry in HEK293 Kidney Cells, SARS-COV-2",~50%
same,inhibition at 100 µM,"[1]; Severe acute respiratory syndrome coronavirus 2, HEK293, 100 μM, Table 2, read-out: Percent (%) Inhibition of Pseudo virus Entry in HEK293 Kidney Cells, SARS-COV-2",89%
same,Concentration at Maximum % Inhibition,SARS-CoV-2 USA_WA1/2020 [2]; Example C (Table 3),150 µM
same,Maximum Inhibition,SARS-CoV-2 USA_WA1/2020 [2]; Example C (Table 3),49.87%
same,IC50,"SARS-CoV-2 USA_WA1/2020 [2]; Example C (Table 3), hydrochloride, read-out: IC 50 against SARS-COV-2 Induced Cytopathic Effect in Vero E6 Cells",> 150 µM
same,IC50,"SARS-CoV-2 USA_WA1/2020 [2]; Severe acute respiratory syndrome coronavirus 2, Vero C1008, Example C (Table 3), read-out: IC 50 against SARS-COV-2 Induced Cytopathic Effect in Vero E6 Cells",≥ 150 µM
same,IC50,"SARS-CoV-2 USA_WA1/2020 [2]; Severe acute respiratory syndrome coronavirus 2, Vero C1008, Vero E6, Example B, highest concentration tested 30 μM, read-out: IC50 against SARS-CoV-2 infection induced CPE",> 30 µM
same,inhibition at 30 µM,"SARS-CoV-2 USA_WA1/2020 [2]; Severe acute respiratory syndrome coronavirus 2, Vero C1008, at 30 μM, Example B, read-out: inhibition of SARS-CoV-2 induced CPE at maximum concentration",14.2%
same,effect on Spike (RBD)-rhACE2 interaction,"[3]; 100 μM to 100 nM, hydrochloride",did not produce a stimulation or enhancement of binding; also recorded: more potent at disrupting the interaction between ACE2 and RBD than BHH
same,IC50,"[3]; highest tested 100 μM, read-out: Estimated Relative IC50 against rhACE2 and RBD Interaction Assay, IC50_2",232 µM
same,IC50,"[3]; read-out: Estimated Relative IC50 against rhACE2 and RBD Interaction Assay, IC50_1",0.82 µM
same,remaining activity at 500 µM,"ACE1 [4]; 500 μM, read-out: ACE activity remaining",100%
same,effect on exopeptidase activity of ACE,ACE1 [4]; hydrochloride,did not inhibit the activity of ACE
same,change of ACE1 expression,ACE1 [5],no changes
same,change of ACE2 expression,ACE2,no changes
same,Conc. at Max. % Viability,Vero E6 cells; Example C (Table 4),0.59 µM
same,Conc. at Min. % Viability,Vero E6 cells; Example C (Table 4),300 µM
same,Min. Viability,Vero E6 cells; Example C (Table 4),0.55%
same,Max. Viability,"Vero E6 cells; Example C (Table 4), hydrochloride",96% and 96.64%
same,percent minimum viability,"Vero E6 cells; at 30 μM, Example B",113.95%
same,"Overall Gmean Days 1-4, E sgRNA, rectal swabs",SARS-CoV-2 USA_WA1/2020 [6],4.21 copies/swab
same,"Overall Gmean Days 1-4 higher than Group 3, E sgRNA, rectal swabs",SARS-CoV-2 USA_WA1/2020 [6],3 fold
same,"Peak viral load versus Group 3, N2 gRNA, rectal swabs",SARS-CoV-2 USA_WA1/2020 [6],similar
same,"Peak viral replication load higher than Group 3, E sgRNA, rectal swabs",SARS-CoV-2 USA_WA1/2020 [6],6 fold
same,"SARS-CoV-2 genome load, N2 gRNA, lungs",SARS-CoV-2 USA_WA1/2020 [6]; Day 4,4.03E+09 copies/gram
same,"SARS-CoV-2 genome load, N2 gRNA, trachea",SARS-CoV-2 USA_WA1/2020 [6]; Day 4,6.24E+08 copies/gram
same,"active replication load higher than Group 3, E sgRNA, lungs",SARS-CoV-2 USA_WA1/2020 [6]; Day 4,2 fold
same,"active replication load, E sgRNA, lungs",SARS-CoV-2 USA_WA1/2020 [6]; Day 4,2.78E+07 copies/gram
same,"active replication load, E sgRNA, nasal turbinate",SARS-CoV-2 USA_WA1/2020 [6]; Day 4,1.09E+08 copies/gram
same,"active replication load, E sgRNA, trachea",SARS-CoV-2 USA_WA1/2020 [6]; Day 4,1.11E+06 copies/gram
same,"genome load higher than Group 3, N2 gRNA, lungs",SARS-CoV-2 USA_WA1/2020 [6]; Day 4,2 fold
same,"replication load higher than Group 3, E sgRNA, trachea",SARS-CoV-2 USA_WA1/2020 [6]; Day 4,similar
same,"viral load higher than Group 3, N2 gRNA, trachea",SARS-CoV-2 USA_WA1/2020 [6]; Day 4,similar
same,serum IL-6 levels versus Group 3,"SARS-CoV-2 USA_WA1/2020 [6]; Day 4, ELISA, P<0.05",significantly lower
same,serum TNF-α versus Group 3,"SARS-CoV-2 USA_WA1/2020 [6]; Day −1, Day 2 (P<0.05), Day 4 (P<0.001)",significantly low
same,serum IL-10 levels between groups,"SARS-CoV-2 USA_WA1/2020 [6]; Days −1, 2, 4",No significance difference
same,tolerability of administered doses,SARS-CoV-2 USA_WA1/2020 [6]; in vivo,tolerated the administered doses well
same,incidence and severity of microscopic lesions versus vehicle control,SARS-CoV-2 USA_WA1/2020 [6]; lung histopathology,similar
same,lung viral load by TCID50 assay versus vehicle control,SARS-CoV-2 USA_WA1/2020 [6]; lung samples Day 4,No difference
same,"SARS-CoV-2 genome load, N2 gRNA, nasal turbinate",SARS-CoV-2 USA_WA1/2020 [6]; necropsy Day 4,3.57E+10 copies/gram
same,gross lesions in the lung,SARS-CoV-2 USA_WA1/2020 [6]; necropsy Day 4,reduced gross lesions in the lung
same,"Overall Gmean Days 1-4, E sgRNA, pharyngeal swabs","SARS-CoV-2 USA_WA1/2020 [6]; AMB 500, BHH 200 mg/kg/day PO",1.89E+04 copies/swab
same,"Overall Gmean Days 1-4 lower than Group 3, E sgRNA, pharyngeal swabs","SARS-CoV-2 USA_WA1/2020 [6]; AMB 500, BHH 200 mg/kg/day PO",5 fold
same,"Overall Gmean Days 1-4 viral load lower than Group 3, N2 gRNA, pharyngeal swabs","SARS-CoV-2 USA_WA1/2020 [6]; AMB 500, BHH 200 mg/kg/day PO",4 fold
same,"Overall Gmean viral load Days 1-4, N2 gRNA, pharyngeal swabs","SARS-CoV-2 USA_WA1/2020 [6]; AMB 500, BHH 200 mg/kg/day PO",4.93E+07 copies/swab
same,"Peak viral load lower than vehicle (Group 3), N2 gRNA, pharyngeal swabs","SARS-CoV-2 USA_WA1/2020 [6]; AMB 500, BHH 200 mg/kg/day PO",16 fold
same,"Peak viral replication load lower than Group 3, E sgRNA, pharyngeal swabs","SARS-CoV-2 USA_WA1/2020 [6]; AMB 500, BHH 200 mg/kg/day PO",34 fold
same,"Peak viral load, N2 gRNA, pharyngeal swabs","SARS-CoV-2 USA_WA1/2020 [6]; AMB 500, BHH 200 mg/kg/day PO, peak Day 2 (AMB), Day 1 (BHH)",9.01E+06 copies/swab
same,"Peak viral replication load, E sgRNA, rectal swabs","SARS-CoV-2 USA_WA1/2020 [6]; peak Day 1 (AMB), Day 2 (BHH)",20.15 copies/swab
same,"Peak viral replication load, E sgRNA, pharyngeal swabs","SARS-CoV-2 USA_WA1/2020 [6]; peak Day 2 (AMB), Day 1 (BHH)",2.79E+04 copies/swab
same,"Peak viral load, N2 gRNA, rectal swabs",SARS-CoV-2 USA_WA1/2020 [6]; peak on Day 2,9.75E+04 copies/swab
same,CC50 at 72 h,"in vitro; 50% cytotoxic concentration (CC50), Vero E6, 72 hours, Examples A and B, highest concentration 30 μM",> 30 µM
same,CC50 at 72 h,"in vitro; Cytotoxicity CC50, Vero E6, 72 hours, Example C (Table 4)",184 µM
